In patent publication US20220386602A1, “METHODS OF USING A COMPOSITION COMPRISING AN ANIONIC PESTICIDE AND A BUFFER” (BASF CORPORATION, priority 2019, published 2022):
Like-named read-outs stand apart in the source and are kept apart here.

Tested on: dicamba sensitive soybean plants
Conditions: dicamba 2240 g ae/ha, AMS 917 g/ha and K2CO3 buffer 4000 g/ha where named, 0.25% v/v non-ionic surfactant (Preference), 8 glass petri plates
Text: The method of a bioassay humidome study utilizes a treated substrate (e.g. glass, soil, potting mix or plants) placed in a plastic tray covered with a clear plastic humidome (overall size 25 cm wide×50 cm long×20 cm tall; source: Hummert) along with 2 dicamba sensitive soybean plants (1-2 true leaves). Individual humidomes representing different study treatments and replicates are placed in a greenhouse environment (with a typical diurnal temperature range of 25 to 40 C and 75 to 98 % RH).
After 18 to 24 hours, the sensitive soybean plants are removed from the humidomes and placed on a greenhouse bench for observation and visual response or injury assessment over a 2-3 weeks period. The level of injury to soybean plants is an indirect measurement of amount of dicamba exposure from treated substrate.

SMILES | % bioassay soybean response [%] | % bioassay soybean response (listed as dicamba-BAPMA)
CN(CCCN)CCCN.COc1c(Cl)ccc(Cl)c1C(=O)O [Dicamba-BAPMA, dicamba N,N-bis(3-aminopropyl)methylamine salt] | 9 | lower soybean response than dicamba-DGA or dicamba-DMA
CNC.COc1c(Cl)ccc(Cl)c1C(=O)O [Dicamba-DMA, dicamba dimethylamine] | 45 | –
